Earlier results, collected in patent US20220071922A1, “DELIVERY OF HEALTH BENEFITS THROUGH COMPONENT FORMULATION” (Clear Lake Research, LLC, priority 2018, published 2022).

What was measured:
CB2 receptors = CB2 receptors (Homo sapiens, UniProt P34972); settings: estimated; times the affinity of CBD
[1] = phytocannabinoids interact with oxygen; without nitrogen overlay
[2] = applied topically

Sequence of CB2 receptors (P34972 whole entry): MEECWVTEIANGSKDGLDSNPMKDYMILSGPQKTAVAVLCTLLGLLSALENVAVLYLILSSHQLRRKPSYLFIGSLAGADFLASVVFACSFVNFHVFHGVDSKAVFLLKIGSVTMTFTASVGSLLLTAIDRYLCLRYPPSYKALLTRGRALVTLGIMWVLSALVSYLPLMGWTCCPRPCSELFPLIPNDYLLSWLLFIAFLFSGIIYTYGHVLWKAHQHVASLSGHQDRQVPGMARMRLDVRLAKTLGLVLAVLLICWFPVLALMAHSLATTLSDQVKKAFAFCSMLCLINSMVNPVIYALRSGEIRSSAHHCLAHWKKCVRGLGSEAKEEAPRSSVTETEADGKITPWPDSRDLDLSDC

SMILES	affinity relative to CBD (CB2 receptors)	shelf life [1]	time to significant pain relief impact [2]
CCCCC/C=C\C/C=C\CCCCCCCC(=O)OC(CO)CO [2-Lineoleoyl-glycerol]	~1,000 times		
CCCCCCCCCCCCCCCC(=O)OC(CO)CO [2-Palmitolyl-glycerol]	~1,000 times		
C=C(C)[C@@H]1CCC(C)=C[C@H]1c1c(O)cc(CCCCC)cc1O [CBD, cannabidiol]		about six	about 30 minutes
